The values that follow come from patent US20230055321A1, “PYRIMIDOPYRROLE SPIRO COMPOUNDS AND DERIVATIVES THEREOF AS DNA-PK INHIBITORS” (MEDSHINE DISCOVERY INC., priority 2019, published 2023).

Data set [1] deals with Human-derived DNA-PK (Homo sapiens, UniProt P78527). Nature of the data set: DNA-dependent protein kinase (DNA-PK) inhibitory activity screening experiment (Eurofins, HTRF). Type of data set: biochemical. Conditions: 50 nM GST-cMyc-p53, 30 minutes at room temperature. On the procedure:
Experimental Method (Eurofins Pharma Discovery Service) DNA-PK (h) was incubated in assay buffer containing 50 nM GST-cMyc-p53 and Mg/ATP (according to the required concentration). The reaction was initiated by adding Mg/ATP mixture. After 30 minutes of incubation at room temperature, the reaction was stopped by the addition of stop solution containing EDTA. Finally, detection buffer (containing labeled anti-GST monoclonal antibody and europium-labeled anti-Ser15 antibody against phosphorylated p53) was added.

Data set [2] can be described thus: Pharmacokinetic evaluation in mice, plasma, IV and PO. Type of data set: in vivo. Conditions: Balb/c male mice; for Tlast / AUC(0-t) / C0 / clearance / half-life / Vd / Cmax / Tmax / AUC0-last / T1/2: plasma; for F: PO (2 mg/kg) vs IV (0.4 mg/kg); for Vd: read-out: Vdss. On the procedure: The test compound was mixed with 10% dimethyl sulfoxide/50% polyethylene glycol 200/40% water, vortexed and sonicated to prepare a nearly clear solution of 0.08 mg/mL, which was filtered with a microporous membrane for use. Balb/c male mice of 18 to 20 grams were selected, and the candidate compound solution was administered intravenously at a dose of 0.4 mg/kg. The test compound was mixed with 10% dimethyl sulfoxide/50% polyethylene glycol 200/40% water, vortexed and sonicated to prepare a nearly clear solution of 0.2 mg/mL, which was filtered with a microporous membrane for use. Balb/c male mice of 18 to 20 grams were selected, and the candidate compound solution was orally administered at a dose of 2 mg/kg. Whole blood was collected for a certain period of time, and plasma was prepared, then drug concentration was analyzed by LC-MS/MS method, and pharmacokinetic parameters were calculated by Phoenix WinNonlin software (Pharsight, USA).
IV: intravenous administration; PO: oral administration; C0: instantaneous required concentration after intravenous injection; Cmax: maximum blood drug concentration after administration; Tmax: time required to reach the peak drug concentration after administration; T1/2: time required for the blood drug concentration to decrease by half; Vdss: apparent volume of distribution, refers to the proportional constant of the drug dose in vivo and the blood drug concentration when the drug reaches a dynamic equilibrium in vivo. Cl: clearance rate, refers to the apparent volume of distribution of the drug cleared in vivo per unit time; Tlast: time at the last detection point; AUC0-last: area under the drug-time curve, refers to the area surrounded by the blood drug concentration curve to the time axis; F: a measure of the speed and degree of drug absorption into the blood circulation, which is an important index for evaluating the degree of drug absorption.

[3] abbreviates: ATP: 10 μM, read-out: DNA-PK kinase inhibitory activity IC50.
The mark [4] stands for this setting: mouse, PO (2 mg/kg), read-out: Tmax.

SMILES strings stand for the structures. Like-named read-outs stand apart in the source and are kept apart here.

For the compound `COC1CCC2(CC1)C(=O)N(C)c1cnc(Nc3cn4ncnc4cc3C)nc12` (single isomer, unassigned) [Compound 3], the IC50 in data set [1] (setting [3]) was determined as 10 nM.

Regarding `COC1CCC2(CC1)C(=O)N(C)c1cnc(Nc3cn4ncnc4cc3C)nc12` (single isomer, unassigned) [Compound 4], in data set [1] (setting [3]), the IC50 was 4 nM.

As for `Cc1cc2ncnn2cc1Nc1ncc2c(n1)C1(CCC(C(F)(F)F)CC1)C(=O)N2C` (single isomer, unassigned) [Compound 18], the IC50 in data set [1] (setting [3]) turned out to be 4 nM.

In the case of `Cc1cc2ncnn2cc1Nc1ncc2c(n1)C1(CCC(C(F)(F)F)CC1)C(=O)N2C` (single isomer, unassigned) [Compound 19], in data set [1] (setting [3]), the IC50 was determined as 7 nM.

For `Cc1cc2ncnn2cc1Nc1ncc2c(n1)C1(CCC(O)CC1)C(=O)N2C` (single isomer, unassigned) [Compound 22], the IC50 in data set [1] (setting [3]) was found to be 11 nM.

With `COC1(C)CCC2(CC1)C(=O)N(C)c1cnc(Nc3cn4ncnc4cc3C)nc12` (single isomer, unassigned) [Compound 27], the IC50 in data set [1] (setting [3]) was 10 nM.

Regarding `COC1(C)CCC2(CC1)C(=O)N(C)c1cnc(Nc3cn4ncnc4cc3C)nc12` (single isomer, unassigned) [Compound 28], the IC50 in data set [1] (setting [3]) turned out to be 3 nM.

As to `Cc1cc2ncnn2cc1Nc1ncc2c(n1)C1(CCOCC1)C(=O)N2C` [Compound 1], half-maximal inhibition in data set [1] (DNA-PK kinase inhibitory activity IC50, ATP: 10 μM) (IC50) was put at 39 nM.

For the compound `Cc1cc2ncnn2cc1Nc1ncc2c(n1)C1(CCCCC1)C(=O)N2C` [Compound 2], in data set [1] (setting [3]), the IC50 stood at 6 nM.

For the compound `Cc1cc2ncnn2cc1Nc1ncc2c(n1)C1(CCCOCC1)C(=O)N2C` (stereo not shown) [Compound 5], in data set [1] (setting [3]), the IC50 worked out at 16 nM.

For the compound `CC(=O)N1CCC2(CC1)C(=O)N(C)c1cnc(Nc3cn4ncnc4cc3C)nc12` [Compound 6], the IC50 in data set [1] (setting [3]) worked out at 6 nM.

Turning to `Cc1cc2ncnn2cc1Nc1ncc2c(n1)C1(CCN(C)CC1)C(=O)N2C` [Compound 7], the IC50 in data set [1] (setting [3]) was determined as 25 nM.

`Cc1cc2ncnn2cc1Nc1ncc2c(n1)C1(CCN(CC(F)(F)F)CC1)C(=O)N2C` [Compound 8]: the half-inhibitory concentration (IC50) in data set [1] (setting [3]) was determined as 4 nM.

`Cc1cc2ncnn2cc1Nc1ncc2c(n1)C1(CCC(F)(F)CC1)C(=O)N2C` [Compound 9]: the 50% inhibitory concentration (IC50) in data set [1] (setting [3]) was 3 nM. For the same compound, the Tlast in data set [2] (IV (0.4 mg/kg)) stood at 2 h. The compound further showed a F in data set [2] of 74.5%. The Tlast in data set [2] (PO (2 mg/kg)) worked out at 4 h. In data set [2] (mouse, IV (0.4 mg/kg)), this compound showed an AUC(0-t) of 0.311 µM·h, a C0 of 871 nM, a clearance of 53.4 mL/min/kg and a half-life of 14.5 min. Also, the Vd in data set [2] (mouse, IV (0.4 mg/kg)) is 1.07 L/kg. In data set [2] (mouse, PO (2 mg/kg)), the AUC(0-t) turned out to be 1.16 µM·h, the Cmax amounted to 1080 nM and the half-life was 28.7 min. In data set [2] (setting [4]), the Tmax was determined as 30 min.

Turning to `Cc1cc2ncnn2cc1Nc1ncc2c(n1)C1(CC=C(F)CC1)C(=O)N2C` (stereo not shown) [Compound 10], the IC50 in data set [1] (setting [3]) came out at 7 nM.

Consider `Cc1cc2ncnn2cc1Nc1ncc2c(n1)C1(CCC3(CCC3)CC1)C(=O)N2C` [Compound 11], for which the IC50 in data set [1] (setting [3]) is 1 nM. The Tlast in data set [2] (IV (0.4 mg/kg)) was found to be 2 h. Moreover, in data set [2], the F came out at 73.7%. This compound returned a Tlast in data set [2] (PO (2 mg/kg)) of 4 h. In data set [2] (mouse, IV (0.4 mg/kg)), this compound had an AUC(0-t) of 0.349 µM·h, a C0 of 1250 nM, a clearance of 47.2 mL/min/kg and a half-life of 14.5 min. The Vd in data set [2] (mouse, IV (0.4 mg/kg)) came out at 0.855 L/kg. In data set [2] (mouse, PO (2 mg/kg)), this compound gave an AUC(0-t) of 1.29 µM·h, a Cmax of 1220 nM and a half-life of 29.6 min. Moreover, the Tmax in data set [2] (setting [4]) was found to be 30 min.

Take `Cc1cc2ncnn2cc1Nc1ncc2c(n1)C1(CCC(C)(C)CC1)C(=O)N2C` [Compound 12]: the IC50 in data set [1] (setting [3]) is 1 nM. In data set [2] (IV (0.4 mg/kg)), this compound gave an AUC0-last of 0.358 µM·h, a T1/2 of 12.2 min and a Tlast of 1 h. Also, the F in data set [2] worked out at 114%. In data set [2] (PO (2 mg/kg)), this compound displayed an AUC0-last of 2.036 µM·h, a Cmax of 1860 nM, a T1/2 of 29.5 min and a Tlast of 4 h. The Tmax in data set [2] (PO (2 mg/kg)) was 30 min. Also, in data set [2] (mouse, IV (0.4 mg/kg)), the C0 is 1280 nM, the clearance is 45.8 mL/min/kg and the Vd was 0.794 L/kg.

For the compound `Cc1cc2ncnn2cc1Nc1ncc2c(n1)C1(CCC3(CC1)COC3)C(=O)N2C` [Compound 13], the IC50 in data set [1] (setting [3]) stood at 6 nM.

For `CON=C1CCC2(CC1)C(=O)N(C)c1cnc(Nc3cn4ncnc4cc3C)nc12` (stereo not shown) [Compound 14], in data set [1] (setting [3]), the IC50 came to 11 nM.

With `Cc1cc2ncnn2cc1Nc1ncc2c(n1)C1(CCC3(CC3)CC1)C(=O)N2C` [Compound 15], the IC50 in data set [1] (setting [3]) turned out to be 4 nM. In data set [2] (IV (0.4 mg/kg)), this compound yielded an AUC0-last of 0.454 µM·h, a T1/2 of 15.2 min and a Tlast of 2 h. In data set [2], this compound yielded an F of 83%. In data set [2] (PO (2 mg/kg)), the AUC0-last came to 1.882 µM·h, the T1/2 was found to be 59.8 min, the Tlast was 8 h and the time to peak (Tmax) stood at 15 min. Further, in data set [2] (mouse, IV (0.4 mg/kg)), the C0 stood at 1230 nM, the clearance is 37.6 mL/min/kg and the Vd was 0.853 L/kg. The compound also gave a Cmax in data set [2] (mouse, PO (2 mg/kg)) of 1640 nM.

`Cc1cc2ncnn2cc1Nc1ncc2c(n1)C1(CC1)C(=O)N2C` [Compound 16]: in data set [1] (setting [3]), the IC50 worked out at 39 nM.

In the case of `Cc1cc2ncnn2cc1Nc1ncc2c(n1)C1(CCCC1)C(=O)N2C` [Compound 17], the IC50 in data set [1] (setting [3]) stood at 7 nM.

Regarding `Cc1cc2ncnn2cc1Nc1ncc2c(n1)C1(CCC(=O)CC1)C(=O)N2C` [Compound 20], the IC50 in data set [1] (setting [3]) came out at 15 nM.

As for `Cc1cc2ncnn2cc1Nc1ncc2c(n1)C1(CCSCC1)C(=O)N2C` [Compound 23], in data set [1] (setting [3]), the IC50 worked out at 8 nM.

Take `Cc1cc2ncnn2cc1Nc1ncc2c(n1)C1(CCS(=O)(=O)CC1)C(=O)N2C` [Compound 24]: in data set [1] (setting [3]), the IC50 turned out to be 84 nM.
